From ChEMBL document CHEMBL3112421, “Small Macrocycles As Highly Active Integrin α2β1 Antagonists” (ACS Med Chem Lett, 2014) come the findings set out here.

Series [1] can be described thus: Permeability across human Caco2 cells. The class given is ADME, cell-based. The settings on record: Caco-2, read-out: permeability. A general note: Passage across Caco-2 layers is used to estimate intestinal permeability.
The target in the next series is Integrin alpha2/beta1 (Homo sapiens, UniProt P05556+P17301). The experiment in a line: Antagonist activity at recombinant integrin alpha2 beta1 receptor (unknown origin) assessed as inhibition of interaction with biotinylated collagen type-1 after 3 hrs by solid phase ELISA-type assay. Type of series: protein-complex assay. A general note: ELISA stands for enzyme-linked immunosorbent assay.
Chain of Integrin alpha2/beta1 (P05556 whole entry): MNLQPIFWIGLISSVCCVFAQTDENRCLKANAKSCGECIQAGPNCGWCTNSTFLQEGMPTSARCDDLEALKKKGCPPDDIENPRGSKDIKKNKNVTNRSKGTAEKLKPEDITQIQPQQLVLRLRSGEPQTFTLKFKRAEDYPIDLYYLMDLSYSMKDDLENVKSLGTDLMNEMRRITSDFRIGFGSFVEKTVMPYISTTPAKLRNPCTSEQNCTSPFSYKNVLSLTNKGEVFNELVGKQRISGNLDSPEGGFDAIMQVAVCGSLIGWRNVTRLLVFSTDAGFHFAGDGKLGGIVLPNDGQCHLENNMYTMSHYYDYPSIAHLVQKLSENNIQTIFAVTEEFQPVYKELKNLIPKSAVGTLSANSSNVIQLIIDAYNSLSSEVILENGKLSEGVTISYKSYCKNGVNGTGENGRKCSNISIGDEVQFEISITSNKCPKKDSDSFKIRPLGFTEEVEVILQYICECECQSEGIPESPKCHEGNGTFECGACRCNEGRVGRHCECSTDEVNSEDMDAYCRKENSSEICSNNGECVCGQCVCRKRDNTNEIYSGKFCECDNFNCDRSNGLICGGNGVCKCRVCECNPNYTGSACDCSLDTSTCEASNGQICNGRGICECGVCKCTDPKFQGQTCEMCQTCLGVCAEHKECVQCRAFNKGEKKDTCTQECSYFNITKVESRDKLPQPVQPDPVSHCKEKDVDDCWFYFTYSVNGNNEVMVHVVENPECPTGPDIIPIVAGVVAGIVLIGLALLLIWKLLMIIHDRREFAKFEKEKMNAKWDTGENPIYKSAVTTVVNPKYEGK
Chain of Integrin alpha2/beta1 (P17301 whole entry): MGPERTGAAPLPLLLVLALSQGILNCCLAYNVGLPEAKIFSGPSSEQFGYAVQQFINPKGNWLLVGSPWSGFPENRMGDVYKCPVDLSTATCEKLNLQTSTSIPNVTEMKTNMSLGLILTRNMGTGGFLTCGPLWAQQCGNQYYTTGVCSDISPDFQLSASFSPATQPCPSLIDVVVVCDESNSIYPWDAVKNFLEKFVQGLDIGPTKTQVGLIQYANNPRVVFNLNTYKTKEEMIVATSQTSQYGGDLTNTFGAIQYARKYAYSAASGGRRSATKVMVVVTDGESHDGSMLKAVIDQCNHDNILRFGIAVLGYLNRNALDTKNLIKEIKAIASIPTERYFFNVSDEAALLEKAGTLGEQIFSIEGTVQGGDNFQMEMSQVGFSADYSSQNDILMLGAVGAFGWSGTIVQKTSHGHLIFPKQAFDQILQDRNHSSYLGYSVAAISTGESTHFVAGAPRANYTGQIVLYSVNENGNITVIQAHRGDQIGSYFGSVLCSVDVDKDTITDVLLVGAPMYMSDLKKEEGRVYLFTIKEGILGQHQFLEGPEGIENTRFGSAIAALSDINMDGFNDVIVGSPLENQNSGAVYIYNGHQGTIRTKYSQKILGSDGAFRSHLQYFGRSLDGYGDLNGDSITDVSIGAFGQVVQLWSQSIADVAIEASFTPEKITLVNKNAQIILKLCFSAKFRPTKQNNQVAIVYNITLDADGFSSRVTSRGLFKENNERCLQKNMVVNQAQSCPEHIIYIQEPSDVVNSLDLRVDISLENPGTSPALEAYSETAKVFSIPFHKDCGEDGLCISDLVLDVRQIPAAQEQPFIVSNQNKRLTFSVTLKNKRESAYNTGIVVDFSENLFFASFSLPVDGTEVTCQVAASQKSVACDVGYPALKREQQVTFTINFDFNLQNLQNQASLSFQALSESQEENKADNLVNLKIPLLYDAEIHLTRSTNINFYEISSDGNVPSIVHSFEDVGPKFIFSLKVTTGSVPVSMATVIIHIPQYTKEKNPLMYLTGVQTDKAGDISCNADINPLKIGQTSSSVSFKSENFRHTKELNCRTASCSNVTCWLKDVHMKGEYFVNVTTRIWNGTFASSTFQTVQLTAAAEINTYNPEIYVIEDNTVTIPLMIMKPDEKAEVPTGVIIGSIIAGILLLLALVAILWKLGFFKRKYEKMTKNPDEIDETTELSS

The nature of series [2]: Drug excretion in Sprague-Dawley rat urine at 4.8 mg/kg, iv administered as bolus dose measured after 24 hrs by LC-MS/MS analysis. Type of series: ADME, organism-based. Also noted: dose 4.8 mg/kg, route intravenous. The settings on record: read-out: Drug excretion.
The next series concerns the target T1, Cytochrome P450 1A2 (Homo sapiens, UniProt P05177).
T1 sequence (P05177 whole entry): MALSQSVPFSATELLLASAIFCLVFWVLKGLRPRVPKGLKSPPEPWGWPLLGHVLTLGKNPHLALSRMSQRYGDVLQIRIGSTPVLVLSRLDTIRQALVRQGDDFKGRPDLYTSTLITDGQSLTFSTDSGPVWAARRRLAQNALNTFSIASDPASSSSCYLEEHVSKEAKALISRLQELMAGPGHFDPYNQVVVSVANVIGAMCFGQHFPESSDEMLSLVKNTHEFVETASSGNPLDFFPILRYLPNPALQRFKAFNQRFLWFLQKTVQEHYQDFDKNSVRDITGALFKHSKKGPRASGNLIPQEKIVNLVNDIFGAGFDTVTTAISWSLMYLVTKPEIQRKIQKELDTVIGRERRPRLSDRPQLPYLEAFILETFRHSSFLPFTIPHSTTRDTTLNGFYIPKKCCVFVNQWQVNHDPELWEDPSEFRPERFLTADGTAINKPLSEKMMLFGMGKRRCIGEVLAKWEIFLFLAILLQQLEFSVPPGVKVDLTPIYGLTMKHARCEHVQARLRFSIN
Description: Induction of CYP1A2 activity (unknown origin) relative to control. Type of series: ADME.

For a further series, the target named is T2, Cytochrome P450 1A1 (Homo sapiens, UniProt P04798).
T2 sequence (P04798 whole entry): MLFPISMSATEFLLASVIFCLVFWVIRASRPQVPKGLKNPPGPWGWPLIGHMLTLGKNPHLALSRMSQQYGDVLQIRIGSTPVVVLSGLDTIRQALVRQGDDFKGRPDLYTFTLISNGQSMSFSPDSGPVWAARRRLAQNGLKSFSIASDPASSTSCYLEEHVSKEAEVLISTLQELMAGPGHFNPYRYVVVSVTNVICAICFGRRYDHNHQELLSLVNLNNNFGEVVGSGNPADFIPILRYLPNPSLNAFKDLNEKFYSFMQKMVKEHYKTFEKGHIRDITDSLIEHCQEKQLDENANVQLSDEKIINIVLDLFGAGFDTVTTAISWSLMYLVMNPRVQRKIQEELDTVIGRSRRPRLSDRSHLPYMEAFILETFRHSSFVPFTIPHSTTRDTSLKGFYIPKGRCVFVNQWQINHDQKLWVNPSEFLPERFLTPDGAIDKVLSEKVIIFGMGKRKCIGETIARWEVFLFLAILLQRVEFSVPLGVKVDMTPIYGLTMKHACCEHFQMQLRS
The experiment in a line: Induction of CYP1A1 activity (unknown origin) relative to control. Type of series: ADME.

A further series concerns the target Integrin alpha-5/beta-1 (Homo sapiens, UniProt P05556+P08648). The experiment in a line: Antagonist activity at integrin alpha5beta1 receptor (unknown origin) assessed as inhibition of interaction with biotinylated collagen type-1 after 3 hrs by solid phase ELISA-type assay. Type of series: protein-complex assay.
Series [3] has as its target Voltage-gated inwardly rectifying potassium channel KCNH2 (Homo sapiens, UniProt Q12809). Description: Inhibition of human ERG expressed in CHO cells by patch clamp assay. Type of series: cell-based. (In general: Patch clamp records ionic current or voltage across a cell membrane.)
Series [4] in a line: Lipophilicity, log D of the compound at pH 7.4 at 25 degC. The class given is physicochemical. The settings on record: buffer.
For series [5], the system named is Plasma. Description: Metabolic stability in human plasma at 100 ng/mL measured after 4 hrs. The class given is ADME, cell-free.
Series [6] is described as follows: Drug metabolism in Swiss CD-1 mouse liver microsomes at 5 uM after 20 mins. Type of series: ADME, Microsome. The settings on record: read-out: Drug metabolism.
Series [7] is described as follows: Drug metabolism in human liver microsomes at 5 uM after 20 mins. The class given is ADME. The settings on record: read-out: Drug metabolism.
Series [8] is described as follows: Drug excretion in Sprague-Dawley rat bile at 5 mg/kg, iv administered as bolus dose measured after 2 hrs by LC-MS/MS analysis. Also noted: dose 5 mg/kg, route intravenous. The class given is ADME, organism-based. As to conditions: read-out: Drug excretion.
A short description of series [9]: Drug metabolism in Sprague-Dawley rat liver microsomes at 5 uM after 20 mins. As to conditions: read-out: Drug metabolism. The class given is ADME.
Series [10] has as its target T3, Cytochrome P450 3A4 (Homo sapiens, UniProt P08684). The experiment in a line: Inhibition of CYP3A4 (unknown origin) after 10 to 30 mins. The class given is ADME.
Series [11] can be described thus: Plasma concentration in Sprague-Dawley rat at 4.8 mg/kg, iv administered as bolus dose measured after 1 hr by LC-MS/MS analysis. The class given is ADME, organism-based. Also noted: dose 4.8 mg/kg, route intravenous.
Series [12] can be described thus: Initial plasma concentration in Sprague-Dawley rat at 4.8 mg/kg, iv administered as bolus dose by LC-MS/MS analysis. The class given is ADME, organism-based. Also noted: dose 4.8 mg/kg, route intravenous.
The target of series [13] is T3, Cytochrome P450 3A4. The experiment in a line: Induction of CYP3A4 activity (unknown origin) relative to control. Type of series: ADME.
Series [14] relates to Plasma. The experiment in a line: Metabolic stability in rat plasma at 100 ng/mL measured after 4 hrs. The class given is ADME, cell-free.
Series [15] has as its target Integrin alpha1/beta1 complex (Homo sapiens, UniProt P05556+P56199). The experiment in a line: Antagonist activity at integrin alpha1beta1 receptor (unknown origin) assessed as inhibition of interaction with biotinylated collagen type-1 after 3 hrs by solid phase ELISA-type assay. Type of series: protein-complex assay.
Series [16] deals with Plasma. The experiment in a line: Metabolic stability in mouse plasma at 100 ng/mL measured after 4 hrs. Type of series: ADME, cell-free.
The nature of series [17]: Half life in Sprague-Dawley rat at 4.8 mg/kg, iv administered as bolus dose by LC-MS/MS analysis. Type of series: ADME, organism-based. Set-up: dose 4.8 mg/kg, route intravenous. The settings on record: in vivo.
Series [18] is described as follows: Solubility of the compound at pH 7.4 at 25 degC. Type of series: physicochemical. The settings on record: buffer.
Series [19] can be described thus: Volume of distribution at steady state in Sprague-Dawley rat at 4.8 mg/kg, iv administered as bolus dose by LC-MS/MS analysis. The settings on record: in vivo, read-out: Vdss. Type of series: ADME, organism-based. Set-up: dose 4.8 mg/kg, route intravenous.

T3 sequence (P08684 whole entry): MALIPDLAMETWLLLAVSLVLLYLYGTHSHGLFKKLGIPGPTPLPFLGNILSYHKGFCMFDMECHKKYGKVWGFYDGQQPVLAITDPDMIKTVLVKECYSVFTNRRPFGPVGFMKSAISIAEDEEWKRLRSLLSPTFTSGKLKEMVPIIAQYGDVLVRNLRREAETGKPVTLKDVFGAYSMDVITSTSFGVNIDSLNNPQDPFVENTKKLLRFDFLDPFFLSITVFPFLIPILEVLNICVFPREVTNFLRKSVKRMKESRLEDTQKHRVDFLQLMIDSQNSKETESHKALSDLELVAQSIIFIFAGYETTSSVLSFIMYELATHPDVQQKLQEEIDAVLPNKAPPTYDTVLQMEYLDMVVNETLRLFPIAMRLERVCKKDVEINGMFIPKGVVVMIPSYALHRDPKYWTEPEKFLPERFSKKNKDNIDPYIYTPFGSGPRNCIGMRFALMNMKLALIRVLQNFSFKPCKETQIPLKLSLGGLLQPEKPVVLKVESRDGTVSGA
Chain of Integrin alpha1/beta1 complex (P05556 whole entry): as the sequence (P05556 whole entry) above
Chain of Integrin alpha1/beta1 complex (P56199 whole entry): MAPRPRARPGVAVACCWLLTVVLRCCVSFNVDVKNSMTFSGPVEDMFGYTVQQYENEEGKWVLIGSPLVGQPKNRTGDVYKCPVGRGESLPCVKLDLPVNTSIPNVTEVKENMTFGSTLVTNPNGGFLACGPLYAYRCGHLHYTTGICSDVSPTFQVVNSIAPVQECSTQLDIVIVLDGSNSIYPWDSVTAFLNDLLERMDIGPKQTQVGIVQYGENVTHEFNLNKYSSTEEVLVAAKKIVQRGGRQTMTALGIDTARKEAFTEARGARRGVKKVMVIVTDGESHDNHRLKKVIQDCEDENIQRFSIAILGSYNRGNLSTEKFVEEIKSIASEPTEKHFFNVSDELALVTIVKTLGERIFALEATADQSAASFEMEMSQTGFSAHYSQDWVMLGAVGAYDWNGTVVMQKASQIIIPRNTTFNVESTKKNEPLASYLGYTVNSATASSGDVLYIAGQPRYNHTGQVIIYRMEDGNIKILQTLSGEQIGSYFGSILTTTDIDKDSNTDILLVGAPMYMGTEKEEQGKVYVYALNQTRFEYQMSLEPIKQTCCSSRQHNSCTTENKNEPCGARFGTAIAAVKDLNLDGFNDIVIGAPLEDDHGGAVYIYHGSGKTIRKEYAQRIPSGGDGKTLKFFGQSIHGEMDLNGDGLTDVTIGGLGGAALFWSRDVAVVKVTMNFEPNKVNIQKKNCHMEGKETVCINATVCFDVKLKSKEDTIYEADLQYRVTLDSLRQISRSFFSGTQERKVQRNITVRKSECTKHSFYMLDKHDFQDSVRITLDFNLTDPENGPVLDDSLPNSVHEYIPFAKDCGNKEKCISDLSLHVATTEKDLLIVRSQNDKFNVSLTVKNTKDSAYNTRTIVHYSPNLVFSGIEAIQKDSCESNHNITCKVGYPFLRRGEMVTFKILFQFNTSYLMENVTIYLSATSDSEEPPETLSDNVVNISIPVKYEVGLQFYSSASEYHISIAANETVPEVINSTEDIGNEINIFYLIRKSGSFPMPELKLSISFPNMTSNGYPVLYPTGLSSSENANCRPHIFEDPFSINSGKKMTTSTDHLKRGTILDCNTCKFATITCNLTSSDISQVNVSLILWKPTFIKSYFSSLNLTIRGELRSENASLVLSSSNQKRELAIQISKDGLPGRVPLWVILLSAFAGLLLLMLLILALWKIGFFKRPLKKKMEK
Chain of Voltage-gated inwardly rectifying potassium channel KCNH2 (Q12809 whole entry): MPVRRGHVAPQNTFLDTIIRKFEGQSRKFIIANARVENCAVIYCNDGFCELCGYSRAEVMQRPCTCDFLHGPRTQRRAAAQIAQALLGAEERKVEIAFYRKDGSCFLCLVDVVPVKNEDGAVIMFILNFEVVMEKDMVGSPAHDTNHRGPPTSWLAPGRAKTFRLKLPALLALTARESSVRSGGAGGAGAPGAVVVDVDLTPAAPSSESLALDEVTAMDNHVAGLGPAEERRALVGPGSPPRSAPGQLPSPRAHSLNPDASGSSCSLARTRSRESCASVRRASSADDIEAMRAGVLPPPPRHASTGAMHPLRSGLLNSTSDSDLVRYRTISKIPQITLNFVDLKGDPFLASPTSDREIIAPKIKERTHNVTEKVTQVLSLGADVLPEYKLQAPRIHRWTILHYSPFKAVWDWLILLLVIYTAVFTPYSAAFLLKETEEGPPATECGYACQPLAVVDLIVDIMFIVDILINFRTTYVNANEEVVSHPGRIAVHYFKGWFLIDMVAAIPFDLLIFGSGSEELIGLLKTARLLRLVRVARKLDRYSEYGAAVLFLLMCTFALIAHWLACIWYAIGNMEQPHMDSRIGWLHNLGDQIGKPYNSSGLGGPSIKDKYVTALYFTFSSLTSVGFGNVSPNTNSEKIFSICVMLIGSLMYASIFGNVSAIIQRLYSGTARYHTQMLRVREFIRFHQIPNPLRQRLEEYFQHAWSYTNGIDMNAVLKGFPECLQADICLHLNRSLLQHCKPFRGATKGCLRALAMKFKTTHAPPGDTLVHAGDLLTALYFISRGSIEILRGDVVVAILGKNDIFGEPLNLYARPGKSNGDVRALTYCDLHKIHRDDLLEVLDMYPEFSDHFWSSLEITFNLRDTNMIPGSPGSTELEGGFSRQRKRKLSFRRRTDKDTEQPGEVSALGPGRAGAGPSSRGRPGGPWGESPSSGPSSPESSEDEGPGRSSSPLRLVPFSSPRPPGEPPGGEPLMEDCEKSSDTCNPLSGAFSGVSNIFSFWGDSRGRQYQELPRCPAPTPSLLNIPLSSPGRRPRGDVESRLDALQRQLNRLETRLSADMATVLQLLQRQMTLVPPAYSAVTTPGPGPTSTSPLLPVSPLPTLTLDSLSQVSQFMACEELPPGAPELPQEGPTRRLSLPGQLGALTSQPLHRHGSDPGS

As for `CCOC(=O)[C@@H]1Cc2cn(cn2)C/C=C/COc2ccc(Cl)c(c2)C(=O)N1`, in [1], the Papp was > 2 ×10⁻⁶ cm/s. As for `O=C1NC(C(=O)O)Cc2ccccc2OCCCCOc2ccc(Cl)c1c2` (racemic), the IC50 on Integrin alpha2/beta1 was > 4000 nM. On the same count and under the same terms, in the case of `O=C1N[C@H](C(=O)O)Cn2cc(nn2)CCCCOc2ccc(Cl)c1c2` it was 1300 nM. For `Cl.O=C1N[C@H](C(=O)O)Cc2cn(cn2)C/C=C/COc2ccc(Cl)c1c2`, the dose excreted at 24 h in series [2] was found to be 24%. For the same compound, in series [1], the Papp was 0.1 ×10⁻⁶ cm/s. The Activity at Cytochrome P450 1A2, on Cytochrome P450 1A1 and at Cytochrome P450 3A4 [13] was < 10% in each case. In addition, the IC50 was 74 nM on Integrin alpha-5/beta-1; > 10000 nM in [3]; > 30000 nM on Cytochrome P450 3A4 [10]; 4 nM on Integrin alpha2/beta1; 33 nM in series [15]. In addition, in series [4], the logD was 0.05. The Stability result with Plasma [5], with Plasma [14] and in the series with Plasma [16] was “Stable” throughout. Also, the metabolised at 20 min, 5 µM in series [6] was determined as 0%; in [7], 3%; in [9], 0%. For the same compound, the dose excreted at 2 h in series [8] is 50%. The concentration at 1 h in series [11] was < 10 ng/mL. The same compound had a C0 in [12] of 1700 ng/mL. In [17], this compound had a half-life of 14.4 min. For the same compound, in series [18], the solubility is 1540 µg/mL. The Vd in series [19] turned out to be 3.6 L/kg. Regarding `O=C1N[C@H](C(=O)O)Cc2cn(cn2)C/C=C/COc2ccc(Cl)c1n2`, the IC50 at Integrin alpha2/beta1 came to 36 nM. The same measure, in the same setting: as for `O=C1N[C@H](C(=O)O)Cc2cccc(c2)OC/C=C/COc2cccc(F)c21`, the figure is > 1000 nM; as for `O=C1N[C@H](C(=O)O)Cc2cn(cn2)CC/C=C/COc2ccc(Cl)c1c2` (mixture of isomers), 270 nM; as for `O=C1N[C@H](C(=O)O)Cn2cc(nn2)C/C=C/COc2ccc(Cl)c1c2` (mixture of isomers), 38 nM.

As to `O=C1N[C@H](C(=O)O)Cc2cccc(c2)OCCCCOc2ccc1c(Cl)c2`, the IC50 at Integrin alpha2/beta1 turned out to be 114 nM. On the same count and under the same terms, as for `O=C1N[C@H](C(=O)O)Cc2cccc(n2)NC/C=C/COc2ccc(Cl)c1c2`, the figure is > 1000 nM; as for `O=C1N[C@H](C(=O)O)Cc2cn(cn2)CCCCOc2ccc(Cl)c1c2`, 366 nM; as for `O=C1N[C@H](C(=O)O)Cc2cn(nn2)CCCCOc2ccc(Cl)c1c2`, 497 nM. Still for that read-out and setting: as for `O=C1N[C@H](C(=O)O)Cc2cccc(c2)OC/C=C/COc2ccc1c(Cl)c2`, the figure is 163 nM; as for `O=C1N[C@H](C(=O)O)Cc2cn(cn2)C/C=C/COc2ccc1c(Cl)c2` (mixture of isomers), 470 nM; as for `O=C1N[C@H](C(=O)O)Cc2cccc(c2)OCCCCOc2cccc(Cl)c21`, 978 nM. The same measure, in the same setting: as for `O=C1N[C@H](C(=O)O)Cc2ccc(cc2)OC/C=C/COc2ccc(Cl)c1c2`, the figure is 101 nM; as for `O=C1N[C@H](C(=O)O)Cc2cccc(c2)OC/C=C/COc2cc(C(F)(F)F)c1cn2`, 1900 nM; as for `O=C1N[C@H](C(=O)O)Cc2ccc(cc2)OCCCCOc2cccc(Cl)c21`, 106 nM. For `O=C1N[C@H](C(=O)O)Cc2ncn(c2Cl)C/C=C/COc2ccc(Cl)c1c2`, the IC50 at Integrin alpha2/beta1 is > 4000 nM. The same measure, in the same setting: in the case of `O=C1N[C@H](C(=O)O)Cc2ccc(cc2)OC/C=C/COc2cccc(Cl)c21` it was 178 nM; in that of `O=C1N[C@H](C(=O)O)Cc2cccc(n2)NCCCCOc2ccc(Cl)c1c2`, > 1000 nM; in that of `O=C1N[C@H](C(=O)O)Cc2cn(c3ccccc23)C/C=C/COc2ccc(Cl)c1c2`, 12 nM. As for `O=C1N[C@H](C(=O)O)Cc2cccc(c2)OCCCCOc2cccc(F)c21`, on Integrin alpha2/beta1, the IC50 is > 1000 nM.

The IC50 is the concentration that gives 50% inhibition. The term logD denotes the decadic logarithm of the distribution of all forms, ionised or not, between an organic phase and buffer at a given pH. A high value points to higher lipophilicity. Usually half-life stands for how long it takes for the measured level to halve. Lower therefore signals fast loss. The solubility is the dissolved amount per volume that the medium holds.
